From BindingDB's records for doi:10.1111/cbdd.12793 (Nanjing University, 2016)

Target: Tyrosine--tRNA ligase (Staphylococcus aureus (strain MSSA476), UniProt Q6G8J9)
Assay: In vitro Enzyme Inhibition Assay
Settings: pH 7.9
Method: The assays were conducted at 37 °C in a mixture containing 100 mM Tris/Cl pH 7.9, 50 mM KCl, 16 mM MgCl2, 5 mM ATP, 3 mM DTT, 4 mg/ml E. coli MRE600 tRNA (Roche) and 10 μM L-tyrosine (0.3 μM L-[ring-3,5-3H] tyrosine (PerkinElmer, Specific activity: 1.48-2.22 TBq/mmol), 10 μM carrier). Above all, TyrRS (0.2 nM) was pre-incubated with kinds of concentrations inhibitor for 10 min (RT) followed by the addition of pre-warmed mixture and moved them together to 37 °C. After specific intervals, the reaction was ended by the addition of aliquots of the reaction mix into gelid 7% trichloroacetic acid and harvested onto […] hydrophilic Durapore filters (Millipore Multiscreen 96-well plates) and counted by liquid scintillation.

Row | SMILES | IC50 [µM]
1 | Cc1ccc(-c2cc(C(=O)OCCn3c([N+](=O)[O-])cnc3C)nn2-c2ccccc2)cc1 [2-(2-Methyl-5-nitro-1H-imidazol-1-yl)-ethyl-1-phenyl-5-(p-tolyl)-1H-pyrazole-3-carboxylate (4g)] | 60.8
2 | Cc1ccccc1-c1cc(C(=O)OCCn2c([N+](=O)[O-])cnc2C)nn1-c1ccccc1 [2-(2-Methyl-5-nitro-1H-imidazol-1-yl)-ethyl-1-phenyl-5-(o-tolyl)-1H-pyrazole-3-carboxylate (4p)] | 4.55
3 | Cc1ncc([N+](=O)[O-])n1CCOC(=O)c1cc(-c2ccccc2)n(-c2ccccc2)n1 [2-(2-Methyl-5-nitro-1H-imidazol-1-yl)-ethyl-1,5-diphenyl-1H-pyrazole-3-carboxylate (4r)] | 63.1
4 | Cc1ncc([N+](=O)[O-])n1CCOC(=O)c1cc(-c2ccc(F)cc2)n(-c2ccc(Cl)cc2)n1 [2-(2-Methyl-5-nitro-1H-imidazol-1-yl)-ethyl-1-(4-chlorophenyl)-5-(4-fluorophenyl)-1H-pyrazole-3-carboxylate (4m)] | 64.4
5 | COc1ccc(-c2cc(C(=O)OCCn3c([N+](=O)[O-])cnc3C)nn2-c2ccc(C)cc2)cc1 [2-(2-Methyl-5-nitro-1H-imidazol-1-yl)-ethyl-5-(4-methoxyphenyl)-1-(p-tolyl)-1H-pyrazole-3-carboxylate (4a)] | 10.8
6 | Cc1ccc(-c2cc(C(=O)OCCn3c([N+](=O)[O-])cnc3C)nn2-c2ccc(Cl)cc2)cc1 [2-(2-Methyl-5-nitro-1H-imidazol-1-yl)-ethyl-1-(4-chlorophenyl)-5-(p-tolyl)-1H-pyrazole-3-carboxylate (4l)] | 18.1
7 | Cc1ccc(-n2nc(C(=O)OCCn3c([N+](=O)[O-])cnc3C)cc2-c2ccc(F)cc2)cc1 [2-(2-Methyl-5-nitro-1H-imidazol-1-yl)-ethyl-5-(4-fluorophenyl)-1-(p-tolyl)-1H-pyrazole-3-carboxylate (4c)] | 56
8 | Cc1ccc(-c2cc(C(=O)OCCn3c([N+](=O)[O-])cnc3C)nn2-c2ccc(C)cc2)cc1 [2-(2-Methyl-5-nitro-1H-imidazol-1-yl)-ethyl-1,5-di-p-tolyl-1H-pyrazole-3-carboxylate (4b)] | 31.9
9 | Cc1ncc([N+](=O)[O-])n1CCOC(=O)c1cc(-c2cccc(F)c2)n(-c2ccc(Cl)cc2)n1 [2-(2-Methyl-5-nitro-1H-imidazol-1-yl)-ethyl-1-(4-chlorophenyl)-5-(3-fluorophenyl)-1H-pyrazole-3-carboxylate (4y)] | 60.1
10 | Cc1ncc([N+](=O)[O-])n1CCOC(=O)c1cc(-c2ccc(Cl)cc2)n(-c2ccc(Cl)cc2)n1 [2-(2-Methyl-5-nitro-1H-imidazol-1-yl)-ethyl-1,5-bis(4-chlorophenyl)-1H-pyrazole-3-carboxylate (4n)] | 53.1
11 | Cc1ncc([N+](=O)[O-])n1CCOC(=O)c1cc(-c2ccccc2F)n(-c2ccccc2)n1 [2-(2-Methyl-5-nitro-1H-imidazol-1-yl)-ethyl-5-(2-fluorophenyl)-1-phenyl-1H-pyrazole-3-carboxylate (4t)] | 95.4
12 | Cc1cccc(-c2cc(C(=O)OCCn3c([N+](=O)[O-])cnc3C)nn2-c2ccccc2)c1 [2-(2-Methyl-5-nitro-1H-imidazol-1-yl)-ethyl-1-phenyl-5-(m-tolyl)-1H-pyrazole-3-carboxylate (4v)] | 21.6
13 | Cc1ncc([N+](=O)[O-])n1CCOC(=O)c1cc(-c2ccccc2)n(-c2ccc(Cl)cc2)n1 [2-(2-Methyl-5-nitro-1H-imidazol-1-yl)-ethyl-1-(4-chlorophenyl)-5-phenyl-1H-pyrazole-3-carboxylate (4s)] | 16.5

Second part, the compound after the results:

Row | IC50 [µM] | SMILES
14 | 0.92 | COc1ccc(-c2cc(C(=O)OCCn3c([N+](=O)[O-])cnc3C)nn2-c2ccccc2)cc1 [2-(2-Methyl-5-nitro-1H-imidazol-1-yl)-ethyl-5-(4-methoxyphenyl)-1-phenyl-1H-pyrazole-3-carboxylate (4f)]
15 | 29.2 | Cc1cccc(-c2cc(C(=O)OCCn3c([N+](=O)[O-])cnc3C)nn2-c2ccc(Cl)cc2)c1 [2-(2-Methyl-5-nitro-1H-imidazol-1-yl)-ethyl-1-(4-chlorophenyl)-5-(m-tolyl)-1H-pyrazole-3-carboxylate (4w)]
16 | 84.1 | Cc1ncc([N+](=O)[O-])n1CCOC(=O)c1cc(-c2cccc(F)c2)n(-c2ccccc2)n1 [2-(2-Methyl-5-nitro-1H-imidazol-1-yl)-ethyl-5-(3-fluorophenyl)-1-phenyl-1H-pyrazole-3-carboxylate (4x)]
17 | 70 | Cc1ncc([N+](=O)[O-])n1CCOC(=O)c1cc(-c2ccc(F)cc2)n(-c2ccccc2)n1 [2-(2-Methyl-5-nitro-1H-imidazol-1-yl)-ethyl-5-(4-fluorophenyl)-1-phenyl-1H-pyrazole-3-carboxylate (4h)]
18 | 21.2 | Cc1ncc([N+](=O)[O-])n1CCOC(=O)c1cc(-c2ccc(Cl)cc2)n(-c2ccccc2)n1 [2-(2-Methyl-5-nitro-1H-imidazol-1-yl)-ethyl-5-(4-chlorophenyl)-1-phenyl-1H-pyrazole-3-carboxylate (4i)]
19 | 76.2 | Cc1ncc([N+](=O)[O-])n1CCOC(=O)c1cc(-c2ccccc2F)n(-c2ccc(Cl)cc2)n1 [2-(2-Methyl-5-nitro-1H-imidazol-1-yl)-ethyl-1-(4-chlorophenyl)-5-(2-fluorophenyl)-1H-pyrazole-3-carboxylate (4u)]
20 | 40.5 | Cc1ccc(-n2nc(C(=O)OCCn3c([N+](=O)[O-])cnc3C)cc2-c2ccc(I)cc2)cc1 [2-(2-Methyl-5-nitro-1H-imidazol-1-yl)-ethyl-5-(4-iodophenyl)-1-(p-tolyl)-1H-pyrazole-3-carboxylate (4e)]
21 | 36.7 | Cc1ncc([N+](=O)[O-])n1CCOC(=O)c1cc(-c2ccc(I)cc2)n(-c2ccccc2)n1 [2-(2-Methyl-5-nitro-1H-imidazol-1-yl)-ethyl-5-(4-iodophenyl)-1-phenyl-1H-pyrazole-3-carboxylate (4j)]
22 | 47.8 | Cc1ccc(-n2nc(C(=O)OCCn3c([N+](=O)[O-])cnc3C)cc2-c2ccc(Cl)cc2)cc1 [2-(2-Methyl-5-nitro-1H-imidazol-1-yl)-ethyl-5-(4-chlorophenyl)-1-(p-tolyl)-1H-pyrazole-3-carboxylate (4d)]
23 | 5.11 | Cc1ccccc1-c1cc(C(=O)OCCn2c([N+](=O)[O-])cnc2C)nn1-c1ccc(Cl)cc1 [2-(2-Methyl-5-nitro-1H-imidazol-1-yl)-ethyl-1-(4-chlorophenyl)-5-(o-tolyl)-1H-pyrazole-3-carboxylate (4q)]
24 | 1.67 | COc1ccc(-c2cc(C(=O)OCCn3c([N+](=O)[O-])cnc3C)nn2-c2ccc(Cl)cc2)cc1 [2-(2-Methyl-5-nitro-1H-imidazol-1-yl)-ethyl-1-(4-chlorophenyl)-5-(4-methoxyphenyl)-1H-pyrazole-3-carboxylate (4k)]
25 | 13.3 | Cc1ncc([N+](=O)[O-])n1CCOC(=O)c1cc(-c2ccc(I)cc2)n(-c2ccc(Cl)cc2)n1 [2-(2-Methyl-5-nitro-1H-imidazol-1-yl)-ethyl-1-(4-chlorophenyl)-5-(4-iodophenyl)-1H-pyrazole-3-carboxylate (4o)]
